Data published in patent US20260078103A1, “ISOQUINOLONES AS PI3K INHIBITORS” (OnKure, Inc., priority 2022, published 2026).
Read-outs that look alike come from different tables or passages of the source.

Legend:
Format in all cases: cell-based
[1] = test system: SKBR3 cells express WT PI3Ka; test: In vitro cell proliferation, SKBR3 cells (CellTiter-Glo); conditions: inhibition of proliferation
How it was run: (§1)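 EC50 values derive from a four-parameter logistic fit of luminescence-based (CellTiter-Glo) inhibition, referenced to 0.1% DMSO and 10 uM Alpelisib controls. Compound exposure lasted 72 h at 37 °C.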

[2] = test system: T47D cells expressing mutant PI3Ka (H1047R); test: In vitro cell proliferation, T47D cells (CellTiter-Glo); conditions: inhibition of proliferation, read-out: Avg T-47D EC50
How it was run: as §1

[3] = test system: phosphorylation of AKT (pAKT) in T47D cells expressing mutant PI3Ka (H1047R); test: In vitro cell pAKT (Ser473) HTRF, T47D cells; conditions: cellular pAKT, T47D cells, mutant PI3Ka (H1047R), 6 hours, read-out: Avg T-47D IC50
How it was run: (§2)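 pAKT (Ser473) was quantified by HTRF in lysates from cells exposed 6 h at 37 °C to 10-point compound series, with T47D in insulin-supplemented RPMI/10% FBS and SKBR3 in McCoy's 5a/10% FBS. Controls: 0.1% DMSO (high) and 10 uM alpelisib (low). IC50 from sigmoidal curve fitting.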

[4] = test system: phosphorylation of AKT (pAKT) in SKBR3 cells express WT PI3Ka; test: In vitro cell pAKT (Ser473) HTRF, SKBR3 cells; conditions: cellular pAKT
How it was run: as §2

| SMILES | EC50 ([1]; Homo sapiens, SK-BR-3, 72 h) [µM] | EC50 ([2]; Homo sapiens, T47D, 72 h) [µM] | IC50 ([3]; Homo sapiens, T47D, 6 h) [µM] | IC50 ([4]; Homo sapiens, SK-BR-3, 6 h) [µM] | EC50 ([1]; 72 hours) [µM] | EC50 ([2]; 72 hours) [µM] | IC50 [3] [µM] | IC50 ([4]; 6 hours) [µM] |
| --- | --- | --- | --- | --- | --- | --- | --- | --- |
| Cc1cc([C@@H](C)Nc2ccccc2C(=O)O)c2cc(-c3cnn(C4CC4)c3)n(C)c(=O)c2c1 [Example 212] | > 15 | 0.5 to 2 | 0.5 to 2 | > 15 | – | – | – | – |
| Cc1cc([C@@H](C)Nc2ccccc2C(=O)O)c2cc(N3CCN(Cc4ccnc(C)n4)CC3)n(C)c(=O)c2c1 [Example 214] | > 15 | 0.001 to 0.5 | 0.001 to 0.5 | > 15 | – | – | – | – |
| Cc1cc([C@@H](C)Nc2ccccc2C(=O)O)c2cc(-c3ccc(OC4CC4)nc3)n(C)c(=O)c2c1 [Example 216] | > 15 | 0.001 to 0.5 | 0.001 to 0.5 | > 15 | – | – | – | – |
| Cc1cc(C(C)Nc2ccccc2C(=O)O)c2cc(-c3ccc(OC4CC(F)C4)nc3)n(C)c(=O)c2c1 (centres unmarked) [Example 217] | – | – | – | – | 2 to 15 | 0.001 to 0.5 | 0.001 to 0.5 | > 15 |
| COc1ccc(N2CCN(c3cc4c([C@@H](C)Nc5ccccc5C(=O)O)cc(C)cc4c(=O)n3C)CC2)cn1 [Example 218] | 2 to 15 | 0.001 to 0.5 | 0.001 to 0.5 | 2 to 15 | – | – | – | – |
| Cc1cc([C@@H](C)Nc2ccccc2C(=O)O)c2cc(N3CCC4(CC3)CN(CC(F)(F)F)C4)n(C)c(=O)c2c1 [Example 219] | – | – | – | – | 2 to 15 | 0.001 to 0.5 | 0.001 to 0.5 | 2 to 15 |
| Cc1cc([C@@H](C)Nc2ccccc2C(=O)O)c2cc(N3CCN(c4cnn(C)c4)CC3)n(C)c(=O)c2c1 [Example 220] | > 15 | 0.001 to 0.5 | 0.001 to 0.5 | 2 to 15 | – | – | – | – |
| Cc1cc([C@@H](C)Nc2ccccc2C(=O)O)c2cc(N3CCN(c4ccccc4F)CC3)n(C)c(=O)c2c1 [Example 221] | > 15 | 0.001 to 0.5 | 0.001 to 0.5 | 2 to 15 | – | – | – | – |
| Cc1cc([C@@H](C)Nc2ccccc2C(=O)O)c2cc(NCc3ccc(F)cc3)n(C)c(=O)c2c1 [Example 222] | > 15 | 2 to 15 | 2 to 15 | > 15 | – | – | – | – |
| Cc1cc([C@@H](C)Nc2ccccc2C(=O)O)c2cc(-c3cnc(C)cc3C)n(C)c(=O)c2c1 [Example 223] | > 15 | 0.5 to 2 | 0.001 to 0.5 | > 15 | – | – | – | – |
| Cc1cc([C@@H](C)Nc2ccccc2C(=O)O)c2cc(-c3ccc(C(C)(C)F)nc3)n(C)c(=O)c2c1 [Example 225] | > 15 | 0.001 to 0.5 | 0.001 to 0.5 | > 15 | – | – | – | – |
| Cc1cc([C@@H](C)Nc2ccccc2C(=O)O)c2cc(-c3ccc(C(C)C)nc3)n(C)c(=O)c2c1 [Example 226] | > 15 | 0.001 to 0.5 | 0.001 to 0.5 | > 15 | – | – | – | – |
| Cc1cc([C@@H](C)Nc2ccccc2C(=O)O)c2cc(-c3ccc(C4CC4)nc3)n(C)c(=O)c2c1 [Example 227] | > 15 | 0.001 to 0.5 | 0.001 to 0.5 | > 15 | – | – | – | – |
| Cc1cc([C@@H](C)Nc2ccccc2C(=O)O)c2cc(-c3ccc(C(C)(F)F)nc3)n(C)c(=O)c2c1 [Example 230] | > 15 | 0.001 to 0.5 | 0.001 to 0.5 | > 15 | – | – | – | – |
| Cc1cc([C@@H](C)Nc2ccccc2C(=O)O)c2cc(N3CCN(c4cnn(C)n4)CC3)n(C)c(=O)c2c1 [Example 231] | 2 to 15 | 0.001 to 0.5 | 0.001 to 0.5 | 2 to 15 | – | – | – | – |
| Cc1cc([C@@H](C)Nc2ccccc2C(=O)O)c2cc(N3CCN(c4ccn(C)n4)CC3)n(C)c(=O)c2c1 [Example 232] | 2 to 15 | 0.001 to 0.5 | 0.001 to 0.5 | 2 to 15 | – | – | – | – |
| CNc1ccc(N2CCN(c3cc4c([C@@H](C)Nc5ccccc5C(=O)O)cc(C)cc4c(=O)n3C)CC2)cn1 [Example 233] | 2 to 15 | 0.001 to 0.5 | 0.001 to 0.5 | 2 to 15 | – | – | – | – |
| COc1ncc(-c2cc3c([C@@H](C)Nc4ccccc4C(=O)O)cc(C)cc3c(=O)n2C)cn1 [Example 234] | > 15 | 0.001 to 0.5 | 0.001 to 0.5 | > 15 | – | – | – | – |
| Cc1cc([C@@H](C)Nc2ccccc2C(=O)O)c2cc(N3CCN(c4cncnc4)CC3)n(C)c(=O)c2c1 [Example 235] | 2 to 15 | 0.001 to 0.5 | 0.5 to 2 | 2 to 15 | – | – | – | – |
| Cc1cc([C@@H](C)Nc2ccccc2C(=O)O)c2cc(N3CCN(c4cncnc4C)CC3)n(C)c(=O)c2c1 [Example 236] | 2 to 15 | 0.001 to 0.5 | 0.001 to 0.5 | 2 to 15 | – | – | – | – |
